“Also recorded” adds a separate entry of the source. Structures can show the parent of a compound that is named as a salt.
Columns and labels:
[1] = test system: cerebellar granular cells; experiment: L-dopa toxicity in primary cultures of cerebellar granular cells, viability by 14C-aminoisobutyric acid uptake; assay type: cell-based, Sprague Dawley rats; conditions: for % of control* (viability, radioactivity): mean of triplicates +/- S.D.
Description: Primary cultures of cerebellar granular cells were prepared from 8-day-old Sprague Dawley rats (Charles River, Portage, Mich.) as described previously (1). […] Glial cell proliferation was prevented by adding cytosine-arabinofuranoside-monophosphate (Sigma, St. […] Experiments were started after cells were 8 days in vitro (8 DIV). Cells were washed with two ml of serum free growth medium. Concentrations of 100X stock solutions of PPX and the (+) enantiomer in serum free growth medium were made. These were delivered to cells by adding 20 ul to cells in growth medium per well. […] Cells were incubated under the above conditions for 24 hrs. […] Cells were solubilized, following a wash, with 0.5% Triton X-100. The solubilized cells were then counted for radioactivity on a scintillation counter. Data was expressed as the mean of triplicates ±S.D. for each point.

[2] = test system: adrenergic receptors
[3] = test system: dopaminergic receptors; experiment: Battery of binding assays, dopaminergic receptors
[4] = test system: serotonergic receptors
[5] = test system: rat model of cerebral infarction; conditions: administered before the event; cited from earlier work
[6] = test system: gerbil model of global cerebral ischemia; conditions: in vivo; cited from earlier work
[7] = test system: nigrostriatal dopamine neurons
Description: We examined histologically retrograde degeneration of the dopaminergic nigrostriatal (NS) tract over 28 days in gerbils subjected to a 10-minute period of forebrain ischemia via bilateral carotid occlusion.
The administration of pramipexole was via an initial dose of 1 mg/kg PO 60 minutes after ischemia and again at the end of day 1 followed by twice daily dosing for the next 26 days.

CCCNC1CCc2nc(N)sc2C1.Cl.Cl (single isomer, unassigned; (+)) [(+) enantiomer, (+)-enantiomer of 2-amino-6-n-propylamino-4,5,6,7-tetrahydrobenzothiazole dihydrochloride]
viability measurements versus control cells (in words) ([1]; 10 uM compound, L-dopa treated cells): equal to control cells not exposed to L-dopa | neuroprotection against L-dopa toxicity (in words) ([1]; cerebellar granule cells in culture, dihydrochloride): blocked L-dopa toxicity; also recorded: equally as potent and effective compared to pramipexole | binding activity (in words) [2]: inactive | binding activity (in words) [3]: less active | binding activity (in words) [4]: inactive

N[C@@H](Cc1ccc(O)c(O)c1)C(=O)O [L-dopa, reference compound]
Toxicity of L-dopa ([1]; 100 uM L-dopa, 24 hrs): 64.8%

CCN(CC)C(=O)N[C@H]1C=C2c3cccc4[nH]cc(c34)C[C@H]2N(C)C1 [Lisuride]
brain edema [5]: reduced | survival time [5]: prolonged

c1cnc(N2CCN(Cc3ccc4c(c3)OCO4)CC2)nc1 [Piribedil]
functional and biochemical parameters [6]: have an effect

CCCN[C@H]1CCc2nc(N)sc2C1 [Pramipexole, (−)-enantiomer of 2-amino-6-n-propylamino-4,5,6,7-tetrahydrobenzothiazole-dihydrochloride]
% of control* (viability, radioactivity) ([1]; 1 nM compound, 100 uM L-dopa, 24 hrs): 30.0 +/− 6.5 % of control | % of control* (viability, radioactivity) ([1]; 10 nM compound, 100 uM L-dopa, 24 hrs): 39.2 +/− 9.4 % of control | % of control* (viability, radioactivity) ([1]; 100 nM compound, 100 uM L-dopa, 24 hrs): 64.8 +/− 4.7 % of control | % of control* (viability, radioactivity) ([1]; 300 nM compound, 100 uM L-dopa, 24 hrs): 76.2 +/− 7.3 % of control | % of control* (viability, radioactivity) ([1]; 1000 nM compound, 100 uM L-dopa, 24 hrs): 65.5 +/− 14.8 % of control | % of control* (viability, radioactivity) ([1]; 3000 nM compound, 100 uM L-dopa, 24 hrs): 84.9 +/− 0.6 % of control | % of control* (viability, radioactivity) ([1]; 10000 nM compound, 100 uM L-dopa, 24 hrs): 90.0 +/− 11.5 % of control | EC50 ([1]; Rattus norvegicus, cerebellar granule cells in culture, L-dopa, read-out: EC50 for blocking L-dopa toxicity): 300 to 1000 nM | attenuation of 28-day post-ischemic loss of NS DA neurons ([7]; Example 1, 1 mg/kg PO BID beginning at 1 hr after insult, p<0.01 vs vehicle-treated): 36% | increase in nigrostriatal dopamine neurons compared to vehicle ([7]; Example 2, twice daily dose of 0.3 mg/kg, threshold effect): 14% | improvement in 28 day post-ischemic dopamine neuronal survival ([7]; Example 2, twice daily dose of 1 mg/kg PO, p<0.0001 vs vehicle-treated): 38%

Reference: patent US6458820B1, “Method for preventing or the progression of neuronal damage with pramipexole as a neuroprotective agent” (Pharmacia & Upjohn Company, priority 1994, dated 2002)
